As usually defined, the IC50 is the concentration needed to halve the response being measured. High values mean a need for much substance, low ones inhibition by little substance.

This passage reports IC50 results from patent US20240279237A1, “FUSED BICYCLIC HETEROARYL COMPOUNDS USEFUL AS NLRP3 INHIBITORS” (Hoffmann-La Roche Inc., priority 2021, published 2024).

This assay concerns the target T1, NLRP3 (Homo sapiens, UniProt Q96P20).
T1 construct: Seed THP-1 cells (25,000 cells/well) containing 1.0 μg/ml LPS in 40 μl of RPMI medium; host or cells: THP-1 cells
Briefly: THP-1 Cells Pyroptosis Assay. The class given is cell-based. Particulars: THP-1 cells with 1.0 μg/ml LPS; compound 3 hours; nigericin 5 μM 1 hr; resazurin readout. The method, boiled down:
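THP-1 cells in serum-free RPMI primed with LPS (1 μg/ml FAC), incubated with compound 3 h at 37 °C, then nigericin (5 μM FAC) for 1 h. Supernatant removed after spin; viability read by resazurin (100 μM FAC) reduction after a further 1-2 h at 37 °C.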
A general note: Resazurin is reduced to fluorescent resorufin, in cell work by metabolically active cells.

T1 sequence (Q96P20 whole entry): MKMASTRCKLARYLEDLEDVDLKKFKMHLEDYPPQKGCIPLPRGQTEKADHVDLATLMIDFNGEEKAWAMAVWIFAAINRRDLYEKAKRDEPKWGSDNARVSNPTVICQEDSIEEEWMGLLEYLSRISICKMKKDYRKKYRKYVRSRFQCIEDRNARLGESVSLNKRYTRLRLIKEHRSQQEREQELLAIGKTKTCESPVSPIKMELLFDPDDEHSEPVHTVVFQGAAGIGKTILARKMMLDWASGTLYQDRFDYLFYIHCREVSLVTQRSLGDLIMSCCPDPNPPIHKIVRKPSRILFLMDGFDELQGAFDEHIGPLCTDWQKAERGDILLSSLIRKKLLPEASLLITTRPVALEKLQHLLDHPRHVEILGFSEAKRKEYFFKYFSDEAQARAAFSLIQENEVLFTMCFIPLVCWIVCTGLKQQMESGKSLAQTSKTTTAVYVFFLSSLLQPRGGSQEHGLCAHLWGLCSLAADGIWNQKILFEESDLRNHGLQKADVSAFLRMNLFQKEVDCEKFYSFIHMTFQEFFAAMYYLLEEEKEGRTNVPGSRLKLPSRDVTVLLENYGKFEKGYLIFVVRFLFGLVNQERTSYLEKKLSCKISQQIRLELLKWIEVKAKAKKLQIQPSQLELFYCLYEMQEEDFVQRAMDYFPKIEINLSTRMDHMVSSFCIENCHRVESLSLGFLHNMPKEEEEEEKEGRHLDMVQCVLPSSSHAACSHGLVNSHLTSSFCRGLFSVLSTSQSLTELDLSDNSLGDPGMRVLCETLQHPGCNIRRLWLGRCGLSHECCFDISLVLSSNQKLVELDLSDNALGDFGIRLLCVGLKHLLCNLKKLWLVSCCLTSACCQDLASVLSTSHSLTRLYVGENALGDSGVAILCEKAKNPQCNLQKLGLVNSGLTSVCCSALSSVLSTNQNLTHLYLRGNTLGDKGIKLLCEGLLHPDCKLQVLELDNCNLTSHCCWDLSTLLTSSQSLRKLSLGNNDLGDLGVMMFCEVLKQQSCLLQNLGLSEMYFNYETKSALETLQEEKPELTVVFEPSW

In turn, `Cc1cc(C(F)(F)F)cc(O)c1-c1ccc2oc(N[C@@H]3CCCN(C4CC(O)C4)C3)nc2n1` (stereo partly drawn) [Example 61, 2-[2-[[(3R)-1-(3-hydroxycyclobutyl)-3-piperidyl]amino]oxazolo[4,5-b]pyridin-5-yl]-3-methyl-5-(trifluoromethyl)phenol] had an IC50 of 39.4 nM.

In turn, `Cc1cc(C(F)(F)F)cc(O)c1-c1ccc2oc(N3CC4COCC4C3)nc2n1` (stereo not drawn) [Example 62, 2-[2-(1,3,3a,4,6,6a-Hexahydrofuro[3,4-c]pyrrol-5-yl)oxazolo[4,5-b]pyridin-5-yl]-3-methyl-5-(trifluoromethyl)phenol] showed a 50% inhibitory concentration (IC50) of 84.8 nM.

`Cc1cc(Cl)cc(O)c1-c1ccc2oc(N[C@@H]3CCCN(C4COC4)C3)nc2n1` [Example 63, 5-Chloro-3-methyl-2-[2-[[(3R)-1-(oxetan-3-yl)-3-piperidyl]amino]oxazolo[4,5-b]pyridin-5-yl]phenol] had an IC50 of 57.5 nM.

With `Cc1cc(C(F)(F)F)cc(O)c1-c1ccc2oc(N3CCO[C@@H]4CNC[C@H]43)nc2n1` [Example 64A, 2-[2-[(4aR,7aR)-3,4a,5,6,7,7a-Hexahydro-2H-pyrrolo[3,4-b][1,4]oxazin-4-yl]oxazolo[4,5-b]pyridin-5-yl]-3-methyl-5-(trifluoromethyl)phenol], half-maximal inhibition (IC50) was put at 1.7 nM.

For `Cc1cc(C(F)(F)F)cc(O)c1-c1ccc2oc(N3CCO[C@H]4CNC[C@@H]43)nc2n1` [Example 64B, 2-[2-[(4aS,7aS)-3,4a,5,6,7,7a-Hexahydro-2H-pyrrolo[3,4-b][1,4]oxazin-4-yl]oxazolo[4,5-b]pyridin-5-yl]-3-methyl-5-(trifluoromethyl)phenol], the IC50 was 13.9 nM.

Compound `Cc1cc(Cl)cc(O)c1-c1ccc2oc(NC3CCC4CCCN4C3)nc2n1` (stereo not drawn) [Example 65, 2-[2-(1,2,3,5,6,7,8,8a-Octahydroindolizin-6-ylamino)oxazolo[4,5-b]pyridin-5-yl]-5-chloro-3-methyl-phenol] yielded an IC50 of 20.3 nM.

`Cc1cc(C(F)(F)F)cc(O)c1-c1ccc2oc(NCC3CCN3C)nc2n1` (stereo not drawn) [Example 66, 3-Methyl-2-[2-[(1-methylazetidin-2-yl)methylamino]oxazolo[4,5-b]pyridin-5-yl]-5-(trifluoromethyl)phenol]: the midpoint of inhibition, the IC50, lay at 149 nM.

On to `Cc1cc(Cl)cc(O)c1-c1ccc2oc(NCc3c[nH]cn3)nc2n1` [Example 67, 5-Chloro-2-[2-(1H-imidazol-5-ylmethylamino)oxazolo[4,5-b]pyridin-5-yl]-3-methyl-phenol; formic acid], for which half-maximal inhibition (IC50) required 290 nM.

For the compound `CCN1C[C@H](O)C[C@@H](Nc2nc3nc(-c4c(C)cc(Cl)cc4O)ccc3o2)C1` [Example 68, (3R,5R)-5-[[5-(4-Chloro-2-hydroxy-6-methyl-phenyl)oxazolo[4,5-b]pyridin-2-yl]amino]-1-ethyl-piperidin-3-ol;formic acid], the IC50 worked out at 62.4 nM. This IC50 is about 4.6-fold lower than that of the compound before.

For the compound `Cc1ccc(C)c(-c2ccc3oc(N[C@@H]4CCCN(C)C4)nc3n2)c1O` [Example 69, 3,6-Dimethyl-2-[2-[[(3R)-1-methyl-3-piperidyl]amino]oxazolo[4,5-b]pyridin-5-yl]phenol], the IC50 worked out at 2.7 nM.

`CCN1C[C@@H](O)C[C@@H](Nc2nc3nc(-c4c(C)cc(C)cc4O)ccc3o2)C1` [Example 70] had an IC50 of 3.8 nM.

Regarding `CCN1C[C@H](O)C[C@@H](Nc2nc3nc(-c4c(C)cc(C#N)cc4O)ccc3o2)C1` [Example 71, 4-[2-[[(3R,5R)-1-Ethyl-5-hydroxy-3-piperidyl]amino]oxazolo[4,5-b]pyridin-5-yl]-3-hydroxy-5-methyl-benzonitrile], the IC50 is 1.1 nM.

On to `Cc1cc(Cl)cc(O)c1-c1ccc2oc(C3CCC(=O)NC3)nc2n1` (stereo not drawn) [Example 73, 5-[5-(4-Chloro-2-hydroxy-6-methyl-phenyl)oxazolo[4,5-b]pyridin-2-yl]piperidin-2-one], for which inhibition was half-maximal at 30 nM (IC50).

`Cc1cc(Cl)cc(O)c1-c1ccc2oc(N[C@@H]3CCCN(CCC(F)F)C3)nc2n1` [Example 74, 5-Chloro-2-[2-[[(3R)-1-(3,3-difluoropropyl)-3-piperidyl]amino]oxazolo[4,5-b]pyridin-5-yl]-3-methyl-phenol] displayed an IC50 of 9.2 nM. Against the preceding compound, the IC50 is about 3.3-fold lower.

As for `Cc1cc(Cl)cc(O)c1-c1ccc2oc(N[C@@H]3CCCN(CC4CC(O)C4)C3)nc2n1` (stereo partly drawn) [Example 75, 5-Chloro-3-methyl-2-[2-[[(3R)-1-[(3-hydroxycyclobutyl)methyl]-3-piperidyl]amino]oxazolo-[4,5-b]pyridin-5-yl]phenol], half-maximal inhibition (IC50) required 20.8 nM. This IC50 lies about 2.3-fold higher than the previous one.

Compound `Cc1cc(Cl)cc(O)c1-c1ccc2oc(NCc3ncc[nH]3)nc2n1` [Example 76, 5-Chloro-2-[2-(1H-imidazol-2-ylmethylamino)oxazolo[4,5-b]pyridin-5-yl]-3-methyl-phenol] yielded an IC50 of 143 nM.

Compound `Cc1cc(C(F)(F)F)cc(O)c1-c1ccc2oc(N3CCCC(CO)C3)nc2n1` (stereo not drawn) [Example 77, 2-[2-[3-(Hydroxymethyl)-1-piperidyl]oxazolo[4,5-b]pyridin-5-yl]-3-methyl-5-(trifluoromethyl)phenol] yielded a concentration for half-maximal inhibition (IC50) of 135 nM.

Regarding `Cc1cc(C(F)(F)F)cc(O)c1-c1ccc2oc(N3CCC(CO)CC3)nc2n1` [Example 78, 2-[2-[4-(Hydroxymethyl)-1-piperidyl]oxazolo[4,5-b]pyridin-5-yl]-3-methyl-5-(trifluoromethyl)phenol], inhibition was half-maximal at 58.3 nM (IC50).

Regarding `CCN1CCC12CCN(c1nc3nc(-c4c(C)cc(C(F)(F)F)cc4O)ccc3o1)CC2` [Example 79, 2-[2-(1-Ethyl-1,7-diazaspiro[3.5]nonan-7-yl)oxazolo[4,5-b]pyridin-5-yl]-3-methyl-5-(trifluoromethyl)phenol], it took 94.9 nM to reach half-maximal inhibition (IC50).

Compound `CCN1CC2OCCN(c3nc4nc(-c5c(C)cc(C#N)cc5O)ccc4o3)C2C1` [Example 80, 3-Hydroxy-5-methyl-4-[2-[rel-(4aS,7aR)-6-ethyl-2,3,4a,5,7,7a-hexahydropyrrolo[3,4-b][1,4]oxazin-4-yl]oxazolo[4,5-b]pyridin-5-yl]benzonitrile] gave a half-inhibitory concentration (IC50) of 110 nM. The IC50 values of the last two compounds are within 1.5-fold of each other.

As for `Cc1cc(C#N)cc(O)c1-c1ccc2oc(N3CCCC4CCN(C)CC43)nc2n1` (stereo not drawn) [Example 81, 3-Hydroxy-5-methyl-4-[2-(7-methyl-2,3,4,4a,5,6,8,8a-octahydro-1,7-naphthyridin-1-yl)oxazolo[4,5-b]pyridin-5-yl]benzonitrile], the half-maximal inhibitory concentration (IC50) worked out at 72.3 nM.

Compound `Cc1ccc(C#N)c(O)c1-c1ccc2oc(N[C@@H]3CCCN(C)C3)nc2n1` [Example 82, 2-Hydroxy-4-methyl-3-[2-[[(3R)-1-methyl-3-piperidyl]amino]oxazolo[4,5-b]pyridin-5-yl]benzonitrile;2,2,2-trifluoroacetic acid] showed an IC50 of 128 nM.

In the case of `Cc1cc(Cl)cc(O)c1-c1ccc2oc(CC3CCCN(C)C3)nc2n1` (stereo not drawn) [Example 83, 5-Chloro-3-methyl-2-[2-[(1-methyl-3-piperidyl)methyl]oxazolo[4,5-b]pyridin-5-yl]phenol], the IC50 came to 5.1 nM.

For `COC(=O)CCCN1CCC[C@@H](Nc2nc3nc(-c4c(C)cc(Cl)cc4O)ccc3o2)C1` [Example 84, Methyl 4-[(3R)-3-[[5-(4-chloro-2-hydroxy-6-methyl-phenyl)oxazolo[4,5-b]pyridin-2-yl]amino]-1-piperidyl]butanoate], 0.8 nM corresponded to half-maximal inhibition (IC50).

Take `Cc1cc(C#N)cc(O)c1-c1ccc2oc(N[C@@H]3CCCN(CCO)C3)nc2n1` [Example 85, 3-Hydroxy-4-[2-[[(3R)-1-(2-hydroxyethyl)-3-piperidyl]amino]oxazolo[4,5-b]pyridin-5-yl]-5-methyl-benzonitrile]: the IC50 was found to be 15.4 nM.

Regarding `Cc1cc(Cl)cc(O)c1-c1ccc2oc(NC3CCC(CO)N(C)C3)nc2n1` (stereo not drawn) [Example 87, 5-Chloro-2-[2-[[6-(hydroxymethyl)-1-methyl-3-piperidyl]amino]oxazolo[4,5-b]pyridin-5-yl]-3-methyl-phenol;2,2,2-trifluoroacetic acid], inhibition was half-maximal at 75.6 nM (IC50).

For `Cc1cc(Cl)cc(O)c1-c1ccc2oc(CC3CN(C(C)C)CCO3)nc2n1` (stereo not drawn) [Example 88, 5-Chloro-2-[2-[(4-isopropylmorpholin-2-yl)methyl]oxazolo[4,5-b]pyridin-5-yl]-3-methyl-phenol;formic acid], the midpoint of inhibition, the IC50, lay at 6 nM.

Take `Cc1cc(S(C)(=O)=O)cc(O)c1-c1ccc2oc(N[C@@H]3CCCN(C)C3)nc2n1` [Example 89, 3-Methyl-2-[2-[[(3R)-1-methyl-3-piperidyl]amino]oxazolo[4,5-b]pyridin-5-yl]-5-methylsulfonyl-phenol;2,2,2-trifluoroacetic acid]: half-maximal inhibition (IC50) was put at 536 nM.

For the compound `COCCN(c1nc2nc(-c3c(C)cc(Cl)cc3O)ccc2o1)[C@@H]1CCCN(C)C1` [Example 90, 5-Chloro-2-[2-[2-methoxyethyl-[(3R)-1-methyl-3-piperidyl]amino]oxazolo[4,5-b]pyridin-5-yl]-3-methyl-phenol;formic acid], the midpoint of inhibition, the IC50, lay at 22.6 nM. Compared with the last compound, the IC50 is about 24-fold lower.

In turn, `CCN1CCCC[C@@H](Nc2nc3nc(-c4c(C)cc(C(F)(F)F)cc4O)ccc3o2)C1` [Example 91, 2-[2-[[(3R)-1-Ethylazepan-3-yl]amino]oxazolo[4,5-b]pyridin-5-yl]-3-methyl-5-(trifluoromethyl)phenol] returned an IC50 of 4.9 nM. Against the preceding compound, the IC50 is about 4.6-fold lower.

`Cc1cc(Cl)cc(O)c1-c1ccc2oc(NCC3CC(O)C3)nc2n1` (stereo not drawn) [Example 92, 5-Chloro-2-[2-[(3-hydroxycyclobutyl)methylamino]oxazolo[4,5-b]pyridin-5-yl]-3-methyl-phenol]: the IC50 is 26.9 nM.

`Cc1cc(Cl)cc(O)c1-c1ccc2oc(N[C@@H]3CCCN(CCO)C3)nc2n1` [Example 93, 5-Chloro-2-[2-[[(3R)-1-(2-hydroxyethyl)-3-piperidyl]amino]oxazolo[4,5-b]pyridin-5-yl]-3-methyl-phenol]: 2.1 nM corresponded to half-maximal inhibition (IC50).

Regarding `CN1CCC[C@@H](Nc2nc3nc(-c4c(O)cc(Cl)cc4CO)ccc3o2)C1` [Example 94, 5-Chloro-3-(hydroxymethyl)-2-[2-[[(3R)-1-methyl-3-piperidyl]amino]oxazolo[4,5-b]pyridin-5-yl]phenol], the IC50 is 11.9 nM.
